Test results: ChEMBL document CHEMBL1201862, “PubChem BioAssay data set” (2004)
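Following 48 hours of exposure in 96-well plates, responses at five concentrations were used to interpolate endpoints linearly. GI50 = concentration required for 50% inhibition of growth.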 Calls of active or inactive are those of the source. Rule as the data show it: active = GI50 up to about 1.1 µM and inactive = higher.

What was measured:
Test in all cases: NCI-60 cell line screen, 48 h
TK-10 = tested on: TK-10
PC-3 = tested on: PC-3
COLO 205 = tested on: COLO 205
U-251 = tested on: U-251
Malme-3M = tested on: Malme-3M
MDA-MB-231 = tested on: MDA-MB-231
SN12C = tested on: SN12C
K562 = tested on: K562
OVCAR-4 = tested on: OVCAR-4
NCI-H460 = tested on: NCI-H460
SF-539 = tested on: SF-539
T47D = tested on: T47D
SK-OV-3 = tested on: SK-OV-3
SK-MEL-28 = tested on: SK-MEL-28
LOX IMVI = tested on: LOX IMVI
NCI/ADR-RES = tested on: NCI/ADR-RES
HCC 2998 = tested on: HCC 2998
MDA-MB-435 = tested on: MDA-MB-435
SW-620 = tested on: SW-620
HL-60 = tested on: HL-60
IGROV-1 = tested on: IGROV-1
SF-268 = tested on: SF-268
A498 = tested on: A498
NCI-H522 = tested on: NCI-H522
CAKI-1 = tested on: CAKI-1
A549 = tested on: A549
Hs-578T = tested on: Hs-578T
SR = tested on: SR
MDA-N = tested on: MDA-N
UACC-62 = tested on: UACC-62
OVCAR-3 = tested on: OVCAR-3
DU-145 = tested on: DU-145
NCI-H23 = tested on: NCI-H23
CCRF-CEM = tested on: CCRF-CEM
OVCAR-8 = tested on: OVCAR-8
MCF7 = tested on: MCF7
KM12 = tested on: KM12
UO-31 = tested on: UO-31
M14 = tested on: M14
BT-549 = tested on: BT-549
SNB-75 = tested on: SNB-75
OVCAR-5 = tested on: OVCAR-5
RXF 393 = tested on: RXF 393
HOP-62 = tested on: HOP-62
HT-29 = tested on: HT-29
HCT-15 = tested on: HCT-15
SK-MEL-5 = tested on: SK-MEL-5
SF-295 = tested on: SF-295
SK-MEL-2 = tested on: SK-MEL-2
786-0 = tested on: 786-0
EKVX = tested on: EKVX
NCI-H226 = tested on: NCI-H226
UACC-257 = tested on: UACC-257
MOLT-4 = tested on: MOLT-4
ACHN = tested on: ACHN
RPMI-8226 = tested on: RPMI-8226
SNB-19 = tested on: SNB-19

Measured: GI50

Nc1ccc(-c2nc3ccccc3s2)cc1I
inactive: PC-3 41.5 µM | COLO 205 36 µM | U-251 34.4 µM | Malme-3M 99.3 µM | MDA-MB-231 > 69.7 µM | SN12C 35.6 µM | K562 39.2 µM | OVCAR-4 > 7.93 µM | NCI-H460 38.5 µM | SF-539 77.8 µM | T47D 18.7 µM | SK-OV-3 > 65.6 µM | SK-MEL-28 > 100 µM | LOX IMVI 44.8 µM | NCI/ADR-RES > 100 µM | HCC 2998 5.06 µM | MDA-MB-435 97.9 µM | SW-620 > 92.7 µM | HL-60 24.2 µM | SF-268 > 33.5 µM | A498 28.6 µM | NCI-H522 31.1 µM | CAKI-1 > 100 µM | A549 > 78 µM | Hs-578T > 100 µM | SR 42 µM | MDA-N > 100 µM | UACC-62 > 73.6 µM | DU-145 > 100 µM | NCI-H23 64.9 µM | CCRF-CEM 30.1 µM | OVCAR-8 > 96.2 µM | KM12 52.5 µM | UO-31 14.2 µM | M14 81.8 µM | BT-549 > 78 µM | SNB-75 41.9 µM | RXF 393 29.7 µM | HOP-62 37.3 µM | HT-29 66.2 µM | SK-MEL-5 58.7 µM | SF-295 74.3 µM | SK-MEL-2 > 100 µM | 786-0 43.9 µM | EKVX 14.9 µM | UACC-257 > 100 µM | MOLT-4 28.4 µM | ACHN > 87.1 µM | RPMI-8226 > 84.1 µM | SNB-19 54.2 µM
active: TK-10 0.0521 µM | IGROV-1 0.0107 µM | OVCAR-3 0.0614 µM | MCF7 < 0.0116 µM | OVCAR-5 0.0817 µM | NCI-H226 0.221 µM
44.3 µM: HCT-15
